Earlier results, collected in patent US12482537B2, “System of predicting sensitivity of Klebsiella against MeropeneM and method” (priority 2023, dated 2025).

System: carbapenem resistant Klebsiella pneumoniae
Conditions: isolates from 2014 to 2017 (252/403)

## C[C@@H](O)[C@H]1C(=O)N2C(C(=O)O)=C(S[C@@H]3CN[C@H](C(=O)N(C)C)C3)[C@H](C)[C@H]12 [Meropenem]
  resistance rate against meropenem: 62.5%
